Reference: US20260027132A1, “FRAGRANCE COMPOSITIONS AND USE THEREOF FOR IMPROVING SLEEP” (TAKASAGO INTERNATIONAL CORPORATION, priority 2018, published 2026)

The molecules below were run on panelists (assay: Sleep study with panelists smelling test material at bedtime, Fitbit sleep data versus blank control). Details: vs blank control (no fragrance), 0.06 g neat oil on a blotter, smelled at bedtime, jar left open, one week.
Type: in vivo, human
Procedure: A series of sleep studies were conducted. Each study runs one week with one additional week for blank control sample (no fragrance). The number of panelists in each study ranged from 9 to 15. Panelists received either a set of control jars or a set of jars with test material (0.06 g neat oil on a blotter). The second week the order was reversed such that at the end of each study, each panelist had received both treatments.
Each night, when ready to go to sleep, panelists were instructed to open one of the jars, hold it under their nose, and smell the fragrance while counting slowly to 20, then leave the jar open on the night table while sleeping. Fitbit sleep data were collected at the end of each session of each study and analyzed by ANOVA.

Question: For `CC(C)=CCC/C(C)=C/CO` [Geraniol, geraniol], which “Total deep sleep minutes % Increase” value is on record?
Answer: The value was 29%.

Question: And the “Total light sleep minutes % Increase” value?
Answer: Its value is 8%.

Question: And the “Total minutes asleep % Increase” value?
Answer: Its value is 10%.

Question: Which “Total light sleep minutes % Increase” value does the source give for `CC(=O)/C(C)=C/C1C(C)=CCCC1(C)C` (stereo not shown) [gamma-methyl ionone] here?
Answer: The value was 12%.

Question: Which “Sleep efficiency % Increase” value does the source give for `CC(C=O)Cc1ccc(C(C)(C)C)cc1` (stereo not shown) [Lilial, lilial] here?
Answer: The value was 1%.

Question: And the “Total REM sleep minutes % Increase” value?
Answer: Its value is 6%.

Question: And the “Total light sleep minutes % Increase” value?
Answer: The value was 5%.

Question: And the “Total minutes asleep % Increase” value?
Answer: The value was 4%.

Question: For `CC1CCCCCCCCCCCCC(=O)C1` [L-muscone, 3-methylcyclopentadecan-1-one], which “Total deep sleep minutes % Increase” value is on record?
Answer: The value was 11%.

Question: Which “Total deep sleep minutes % Increase” value does the source give for `CC(=O)/C=C/C1C(C)=CCCC1(C)C` (stereo not drawn) [alpha-ionone] here?
Answer: The value was 14%.

Question: And the “Total minutes asleep % Increase” value?
Answer: The value was 5%.

Question: How did the “Sleep efficiency % Increase” value turn out when `CC(C)[C@@H]1CC[C@@H](C)C[C@H]1O` [L-menthol] was run?
Answer: Its value is 1%.

Question: What about the “Total light sleep minutes % Increase” value of the same molecule?
Answer: Its value is 3%.

Question: With `C=CC(C)(CCC=C(C)C)OC(C)=O` (stereo not shown) [Linalyl acetate, linalyl acetate] as the molecule, how does the “Sleep efficiency % Increase” value read?
Answer: The value was 2%.

Question: What about the “Total REM sleep minutes % Increase” value of the same molecule?
Answer: The value was 19%.

Question: What about the “Total deep sleep minutes % Increase” value of the same molecule?
Answer: The value was 16%.

Question: What about the “Total minutes awake % Decrease” value of the same molecule?
Answer: Its value is 10.6%.

Question: For `CC1(C)CCC[C@]2(C)[C@H]3CCO[C@]3(C)CC[C@@H]12` [Ambroxan, (3aR,5aS,9aS,9bR)-3a,6,6,9a-tetramethyl-2,4,5,5a,7,8,9,9b-octahydro-1H-benzo[e][1]benzofuran], which “Total minutes awake % Decrease” value is on record?
Answer: The value was 8%.

Question: With `COc1cc(C=O)ccc1O` [Vanillin, vanillin] as the molecule, how does the “Total REM sleep minutes % Increase” value read?
Answer: Its value is 7%.

Question: `CC(C)C(=O)OCCOc1ccccc1` [Phenoxyethyl isobutyrate, phenoxyethyl isobutyrate] was tested. Which “Total light sleep minutes % Increase” value did it give?
Answer: The value was 8%.

Question: `CC/C=C\CCOC(=O)c1ccccc1O` [cis-3-hexenyl salicylate] was tested. Which “Total deep sleep minutes % Increase” value did it give?
Answer: The value was 8%.

Question: How did the “Sleep efficiency % Increase” value turn out when `CC(=O)/C=C/C1=C(C)CCCC1(C)C` [beta-ionone] was run?
Answer: Its value is 2%.

Question: And the “Total light sleep minutes % Increase” value?
Answer: Its value is 3%.

Question: And the “Total minutes awake % Decrease” value?
Answer: The value was 12%.

Question: Which results are given for `O=C1CCCCCCCCCCCC(=O)OCCO1` [Musk T, 1,4-dioxacycloheptadecane-5,17-dione]?
Answer: Sleep efficiency % Increase: 2%; Total minutes awake % Decrease: 13%

Question: Which “Total REM sleep minutes % Increase” value does the source give for `C=CC(C)CCCC(C)(C)O` (stereo not shown) [Dihydromyrcenol, dihydromyrcenol] here?
Answer: The value was 10%.

Question: And the “Total deep sleep minutes % Increase” value?
Answer: The value was 37%.

Question: And the “Total minutes asleep % Increase” value?
Answer: The value was 13%.

Question: Which “Total light sleep minutes % Increase” value does the source give for `C=CC(C)(O)CCC=C(C)C` (stereo not shown) [Linalool, linalool] here?
Answer: Its value is 5%.

Question: Which “Total light sleep minutes % Increase” value does the source give for `O=C1CCCC=CCCCCCCCCCC1` [Ambretone, 5-cyclohexadecen-1-one] here?
Answer: Its value is 4%.

Question: How did the “Total light sleep minutes % Increase” value turn out when `CC(C)=CCC/C(C)=C\CO` [Nerol, nerol] was run?
Answer: Its value is 4%.

Question: And the “Total minutes asleep % Increase” value?
Answer: The value was 4%.

Question: What does the source list for `CC(C=O)Cc1ccc(C(C)C)cc1` (stereo not shown) [Cyclamen aldehyde, cyclamen aldehyde]?
Answer: Sleep efficiency % Increase: 1.2%; Total deep sleep minutes % Increase: 7.4%; Total minutes asleep % Increase: 4%; Total minutes awake % Decrease: 7%
